Reference: patent US20260215425A1, “NITRIFICATION INHIBITORS” (The University of Melbourne, priority 2022, published 2026)

What was measured:
N. multiformis = assay: standard nitrification inhibition assay (NO2- production, Griess); type: cell-based, Nitrosospira multiformis; conditions: [NH4+]=3 mM, [inhibitor]=0.3 mM (10 mol %), pH 7.5, 30° C., 60 min
Method: (§1) Cells of N. multiformis and N. europaea were cultivated to the mid-exponential growth phase (OD600=0.1, [NO2^−] approximately 800 μM) and harvested by filtration onto 0.2 μm membrane filters (Mixed Cellulose Ester (MCE), Sigma Aldrich). The cells were washed with 2×100 mL of 0.1 M sodium phosphate buffer (NaPB), containing 0.2 mM MgSO4 at pH 7.5. The cells were washed from the filter paper by transferring it to a sterile 50 mL tube and resuspending in NaPB (15 mL), followed by 5 s of vortexing (Ratek, Australia) and 3 s of sonication (Vevor, Australia). […] Experiments were performed in triplicate.
(§2) In a deep 96-well plate (2 mL capacity), 980 μL of the bacterial inoculum (OD600=0.03) was added to the inhibitor (10 μL, 30 mmol L^−1 in Milli-Q water), the solutions were mixed thoroughly and pre-incubated in the dark for 5 minutes at 100 rpm and 30° C. (NH4)2SO4 (10 μL, 150 mM, from a prepared sterile solution containing 19.8 g L^−1 (NH4)2SO4 in Milli-Q water) was then added using a multi-channel pipette. The plate was covered with a with an O2 permeable membrane to ensure aeration (Breathe-Easy® sealing membrane, Sigma Aldrich) and incubated in a temperature-regulated rotary incubator (Ratek, Australia) in the dark for 60 minutes at 30° C. and 100 rpm. An aliquot of the reaction solution ([…]) was transferred to a 96-well spectrophotometric plate to which 50 µL of Griess reagent was added. The colour was allowed to develop for 15 minutes at room temperature, and the absorbance was measured at 540 nm. Each assay was accompanied by control treatments to determine the 0% and 100% NO2 signal. The percentage inhibition was calculated according to eqn. 1 from the NO2 production of the cells in NaPB (i) without additive (‘untreated cells’: 0% signal), (ii) with [NH4^+]=3 mM (‘uninhibited’ cells: 100% signal) and (iii) with [NH4^+]=3 mM and [inhibitor]=0.3 mM and 0.03 mM (10 mol % and 1 mol % of [NH4^+], ‘inhibited cells’). Experiments were performed in triplicate.

soil A = assay: soil incubation, NH4+ and NO3- in soil A; conditions: 5 mol % of applied fertiliser-N, 21 days
Method: Soils used in these studies were air-dried, ground and sieved (2 mm) prior to use. Soil microcosm incubations were carried out in 250 mL polypropylene specimen containers (Sarstedt, Germany), containing 20 g oven dry-weight equivalent of soil. Microcosms were treated with half the volume of water required to meet the desired water-filled pore space (WFPS %) of 60% and pre-incubated at 25° C. for seven days to revive soil microbial activity. Following pre-incubation, the remaining volume to reach the WFPS % was applied as one of the treatment solutions: (1) fertiliser ((NH4)2SO4,) 100 mg kg^−1, (2) fertiliser+0.5 mol % 4-MPT, (3) fertiliser+2.5 mol % 4-MPT, (4) fertiliser+5 mol % 4-MPT or (5) fertiliser+5 mol % compound 1, with three replicates of each treatment per time interval (n=3). Throughout the incubation period soil microcosms were kept aerated by removing the lid for 10 minutes every 2-3 days to allow gas exchange, and moisture levels were replenished via addition of Milli-Q water as required. At the end of the desired incubation period (i.e., after 0, 3, 7, 14, and 21 days, respectively), soil microcosms were removed and destructively sampled by treating with 2 M aqueous potassium chloride solution (KCl, 100 mL) and shaking for 1 h. Soil-KCl solutions were filtered (Whatman No. 42), and the filtrates were stored at −20° C. until the conclusion of the experiment, when all KCl extracts were analysed for the concentration of soil mineral nitrogen from ammonium (NH4^+—N) and from nitrate (NO3^−—N; the conversion of NO2 to NO3^− in soils is very rapid) after appropriate dilutions using Segmented Flow Analysis (San++, Skalar, Breda, The Netherlands). Results are reported as the mean of three replicates, errors reported are standard errors of the mean. Errors associated with raw data were carried through calculations using standard error propagation protocols.
To determine the nitrification inhibitory effect of 4-MPT in vivo, soil incubations were performed by measuring concentration-time profiles for NH4^+ and NO3^− in an acidic Australian soil (soil A, pH=5.9) over 21 days. 4-MPT was tested at three different concentrations (0.5 mol %, 2.5 mol % and 5 mol % of applied fertiliser-N) and compared with the alkyl-substituted compound 1 (5 mol % of applied fertiliser-N) to confirm the requirement of the N-propargyl substitutent for inhibitory activity (FIG. 5).

N. europaea = assay: standard nitrification inhibition assay (NO2- production, Griess); type: cell-based, Nitrosomonas europaea; conditions: [NH4+]=3 mM, [inhibitor]=0.3 mM (10 mol %), pH 7.5, 30° C., 60 min
Method: as §1, §2

CCCn1cc(C)nn1 [Compound 1, 4-Methyl-1-(n-propyl)-1H-1,2,3-triazole]
% Inhibition NM (N. multiformis): complete loss of inhibitory activity
NH4+ loss / conversion in soil (soil A): negligible levels of NH4^+ remaining after 21 days of incubation
% Inhibition NE (N. europaea): complete loss of inhibitory activity
